Measured values as given in US10016432B2 (Legacy Emanuel Hospital & Health Center, priority 2016, dated 2018).
Values joined by “and” are separate entries in the source; they are usually repeats but may differ in a detail not shown here. Identical values can stand only once. “Also recorded” adds a separate entry of the source.

Experiments:
hAdK [1] = biological target: T1, hAdK (Homo sapiens, UniProt P55263); conditions: read-out: Km as substrate of hAdK; cited from earlier work
T1 construct: purchased
T1 sequence (P55263 whole entry): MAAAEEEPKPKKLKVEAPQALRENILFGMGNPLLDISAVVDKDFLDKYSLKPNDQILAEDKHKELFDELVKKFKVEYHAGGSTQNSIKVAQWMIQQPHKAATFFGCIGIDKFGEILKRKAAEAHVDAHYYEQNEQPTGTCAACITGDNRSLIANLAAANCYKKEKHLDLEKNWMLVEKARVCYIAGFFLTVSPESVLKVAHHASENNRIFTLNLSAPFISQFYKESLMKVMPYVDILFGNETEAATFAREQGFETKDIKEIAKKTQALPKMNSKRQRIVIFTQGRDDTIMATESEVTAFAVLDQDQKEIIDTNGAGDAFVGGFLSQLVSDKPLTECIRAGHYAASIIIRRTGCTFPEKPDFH

hAdK [2] = biological target: T1, hAdK; assay: commercial nonisotopic spectrophotometric hAdK kinetic activity assay (340 nm, inosine as substrate); type: biochemical
Procedure: The nucleoside derivatives were tested for inhibitory activity at hAdK using a commercial, nonisotopic assay for the measurement of hAdK kinetic activity based on continuous monitoring of enzymatic activity at 340 nm (appearance of reduced nicotinamide-adenine dinucleotide from a coupled enzymatic reaction). The hAdK-catalyzed phosphorylation of inosine to inosine 5′-monophosphate is coupled to the inosine 5′-monophosphate dehydrogenase-dependent oxidation of the product. […] Percent inhibition of hAdK activity was calculated by determining the slope of the hAdK reaction during the linear phase of the enzymatic reaction (first 40 min) (see Table 1, below). […] Each inhibitor was analyzed at the following concentrations (μM): of 50, 20, 1, 0.50, 0.10, 0.020 and 0.010.

[3] = biological target: human 5HT7 (serotonin) receptor (Homo sapiens, UniProt P34969); assay: PDSP radioligand binding, 5HT7; conditions: read-out: Ki, inhibition of radioligand binding
Chain of human 5HT7 (serotonin) receptor (P34969 whole entry): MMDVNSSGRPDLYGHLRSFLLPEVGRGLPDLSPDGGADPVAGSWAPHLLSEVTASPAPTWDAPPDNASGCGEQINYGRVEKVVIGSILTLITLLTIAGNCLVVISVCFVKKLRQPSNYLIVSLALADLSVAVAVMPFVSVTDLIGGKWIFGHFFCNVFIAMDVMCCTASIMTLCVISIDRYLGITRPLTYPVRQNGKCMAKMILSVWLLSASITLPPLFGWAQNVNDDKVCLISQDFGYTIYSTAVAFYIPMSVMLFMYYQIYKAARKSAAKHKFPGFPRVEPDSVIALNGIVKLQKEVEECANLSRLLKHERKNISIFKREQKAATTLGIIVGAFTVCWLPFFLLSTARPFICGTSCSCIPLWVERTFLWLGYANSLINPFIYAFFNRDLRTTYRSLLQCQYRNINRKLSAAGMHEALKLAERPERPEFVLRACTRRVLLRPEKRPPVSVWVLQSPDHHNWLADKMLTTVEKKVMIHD
Source text: (§1) It is possible that transient treatment with AdK inhibitors would have long-lasting therapeutic benefits for treatment of CNS disorders, not only by raising the basal level of AR activation but also through epigenetic reprogramming. […] SAH in turn inhibits DNA methyltransferases through product inhibition. Because the epigenetic effects related to changes in the DNA methylation status would persist, it might be possible to reduce the duration of drug administration, thus avoiding toxicities associated with prolonged, chronic dosing. A transient dosing regimen might also avoid possible side effects, such as liver toxicity. Compound 38a was submitted to the Psychoactive Drug Screening Program (PDSP) for screening at 45 receptors, channels and transporters. […] Nevertheless, the offtarget interactions of the present set of compounds would have to be examined more extensively.

[4] = tested on: 45 receptors, channels and transporters; assay: PDSP screening at 45 receptors, channels and transporters (other off-target sites); type: binding; conditions: 10 μM
Source text: as §1

human P2Y1 = biological target: T2, human P2Y1 (Homo sapiens, UniProt P47900); assay: calcium transients, P2Y1 in 1321N1 astrocytoma cells; type: cell-based; conditions: 10 μM
T2 construct: expressed in transfected cells; host or cells: 1321N1 astrocytoma cells
T2 sequence (P47900 whole entry): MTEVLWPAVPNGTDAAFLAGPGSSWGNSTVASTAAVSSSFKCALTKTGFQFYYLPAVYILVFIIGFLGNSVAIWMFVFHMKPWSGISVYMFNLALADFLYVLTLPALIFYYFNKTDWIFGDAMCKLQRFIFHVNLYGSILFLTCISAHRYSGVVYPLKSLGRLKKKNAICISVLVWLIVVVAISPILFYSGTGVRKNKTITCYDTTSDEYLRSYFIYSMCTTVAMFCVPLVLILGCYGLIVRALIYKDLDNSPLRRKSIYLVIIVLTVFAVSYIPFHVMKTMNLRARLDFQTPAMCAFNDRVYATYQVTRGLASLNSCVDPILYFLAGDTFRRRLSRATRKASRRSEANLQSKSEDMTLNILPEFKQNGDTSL
Source text: as §1

human P2Y2 = biological target: T3, human P2Y2 (Homo sapiens, UniProt P41231); assay: calcium transients, P2Y2 in 1321N1 astrocytoma cells; type: cell-based; conditions: 10 μM
T3 construct: expressed in transfected cells; host or cells: 1321N1 astrocytoma cells
T3 sequence (P41231 whole entry): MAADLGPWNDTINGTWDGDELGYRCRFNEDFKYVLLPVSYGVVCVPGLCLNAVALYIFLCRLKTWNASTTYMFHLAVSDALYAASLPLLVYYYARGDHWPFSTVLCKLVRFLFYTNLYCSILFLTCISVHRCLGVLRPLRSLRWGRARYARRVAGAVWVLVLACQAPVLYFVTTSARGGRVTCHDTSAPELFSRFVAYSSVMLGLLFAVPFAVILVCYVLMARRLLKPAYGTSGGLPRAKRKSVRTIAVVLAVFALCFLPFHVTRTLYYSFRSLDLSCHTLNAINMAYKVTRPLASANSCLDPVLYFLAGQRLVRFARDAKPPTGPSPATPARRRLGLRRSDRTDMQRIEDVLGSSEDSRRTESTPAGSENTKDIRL
Source text: as §1

human P2Y4 = biological target: T4, human P2Y4 (Homo sapiens, UniProt P51582); assay: calcium transients, P2Y4 in 1321N1 astrocytoma cells; type: cell-based; conditions: 10 μM
T4 construct: expressed in transfected cells; host or cells: 1321N1 astrocytoma cells
T4 sequence (P51582 whole entry): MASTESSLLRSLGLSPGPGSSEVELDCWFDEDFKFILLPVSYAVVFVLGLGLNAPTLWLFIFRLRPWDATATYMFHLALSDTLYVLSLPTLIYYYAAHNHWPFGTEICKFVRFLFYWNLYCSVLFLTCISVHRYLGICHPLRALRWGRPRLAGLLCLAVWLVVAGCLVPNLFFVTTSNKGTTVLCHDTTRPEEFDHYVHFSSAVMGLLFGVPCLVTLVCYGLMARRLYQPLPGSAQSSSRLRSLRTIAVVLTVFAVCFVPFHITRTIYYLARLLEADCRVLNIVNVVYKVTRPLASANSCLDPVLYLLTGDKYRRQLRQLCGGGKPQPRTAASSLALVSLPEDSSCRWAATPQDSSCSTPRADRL
Source text: as §1

human P2Y11 = biological target: T5, human P2Y11 (Homo sapiens, UniProt Q96G91); assay: calcium transients, P2Y11 in 1321N1 astrocytoma cells; type: cell-based; conditions: 10 μM
T5 construct: expressed in transfected cells; host or cells: 1321N1 astrocytoma cells
T5 sequence (Q96G91 1-374): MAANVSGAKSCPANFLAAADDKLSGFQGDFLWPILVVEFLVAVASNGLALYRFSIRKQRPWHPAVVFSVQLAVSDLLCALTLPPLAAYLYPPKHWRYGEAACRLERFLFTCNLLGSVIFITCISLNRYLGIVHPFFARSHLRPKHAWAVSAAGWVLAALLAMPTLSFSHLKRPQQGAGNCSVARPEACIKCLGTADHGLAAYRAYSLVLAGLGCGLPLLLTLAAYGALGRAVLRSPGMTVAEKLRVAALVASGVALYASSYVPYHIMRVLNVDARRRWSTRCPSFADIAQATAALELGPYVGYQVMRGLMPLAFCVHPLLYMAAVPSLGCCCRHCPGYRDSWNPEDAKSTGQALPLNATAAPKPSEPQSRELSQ
Source text: as §1

[5] = biological target: T6, protease-activated receptor (PAR)1 (Homo sapiens, UniProt P25116); assay: PAR1 agonist/antagonist test in mouse KOLF cells; type: cell-based; conditions: 10 μM
T6 construct: expressed in transfected cells; host or cells: mouse KOLF cells
T6 sequence (P25116 22-425): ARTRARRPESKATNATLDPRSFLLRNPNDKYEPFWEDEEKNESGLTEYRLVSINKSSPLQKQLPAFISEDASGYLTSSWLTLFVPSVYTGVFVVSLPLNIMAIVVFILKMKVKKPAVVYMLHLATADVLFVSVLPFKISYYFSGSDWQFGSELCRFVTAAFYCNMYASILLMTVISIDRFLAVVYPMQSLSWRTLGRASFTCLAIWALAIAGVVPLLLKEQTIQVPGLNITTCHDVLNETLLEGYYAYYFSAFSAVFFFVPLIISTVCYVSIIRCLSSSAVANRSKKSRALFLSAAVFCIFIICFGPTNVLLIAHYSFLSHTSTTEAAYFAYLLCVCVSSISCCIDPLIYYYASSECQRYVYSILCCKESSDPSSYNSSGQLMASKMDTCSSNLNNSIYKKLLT
Source text: as §1

ADK-null cells = assay: DNA methylation in ADK-null cells (off-target); type: cell-based; conditions: vs vehicle
Source text: To test for nonspecific activities of ADK inhibitors on DNA methylation, we tested our set of inhibitors on ADK-null cells, which are hypomethylated and can be used to identify treatments that increase DNA methylation (whereas ADK-L cells display a hypermethylated ceiling effect).

DNMT activity = DNMT activity in brain nuclear protein extracts of treated mice; type: in vivo, Swiss Webster mice; conditions: 3.1 mg/kg i.p., 3 doses every 12 hours, 1 hour after 3rd dose, vs vehicle
Procedure: (§2) Epigenetic activity in the brain. […] Tissue was harvested 1 hour after the 3rd dose.

[6] = tested on: Hippocampal DNA methylation; assay: hippocampal / brain DNA methylation in treated mice; type: in vivo, Swiss Webster mice; conditions: 3.1 mg/kg i.p., 3 doses every 12 hours, 1 hour after 3rd dose, vs controls
Procedure: as §2

[7] = side effects: mouse activity in an open field; type: in vivo, mice; conditions: epigenetically active dose, i.p.
Procedure: Side effects were indexed by mouse activity in an open field for 20 minutes following a single i.p. injection of vehicle, 5-ITU or compound 38a. […] Data are presented as the mean±SEM and analyzed by one-way ANOVA then uncorrected Fisher's LSD test with all comparisons relative to vehicle or Kruskal-Wallis then Dunn's multiple comparisons.

[8] = polarity judged by tendency to dissolve in organic solvents; type: physicochemical; conditions: based on tendency to dissolve in organic solvents
Source text: The bioavailability and the in vivo activity of these inhibitors remain to be determined. Other nucleoside derivatives were protective in seizure models when administered peripherally. […] Among the new (S)-methanocarba AdK inhibitors, 5′-deoxy analogue 38a and especially the fluoro analogues 38b and 38c appear to be the least polar, based on their tendency to dissolve in organic solvents.

ADK-S cells = assay: DNA methylation in ADK-S cells
ADK-L cells = assay: DNA methylation (5 mC ELISA) in ADK-L cells; set-up: reduction of DNA methylation in ADK-L cells: dose or concentration left out as unconfirmed; conditions: 24 hours
Procedure: The in vitro IC50 for each conventional ADK inhibitor was selected as the treatment dose. […] Purified genomic DNA (100 ng) was run on a 5-methylcytosine (5 mC) ELISA. Data shown in FIG. 11 are represented as the mean±SEM (n=8-9) and analyzed by one-way ANOVA followed by Tukey's multiple comparisons test (C) or Krus-kal-Wallis test followed by uncorrected Dunn's test with all comparisons relative to ADK-L vehicle (D).

Nc1ncnc2c1ncn2[C@@H]1O[C@H](CO)[C@@H](O)[C@H]1O [adenosine]
Km (hAdK [1]): 0.7 µM

C[C@@H]1[C@@H](O)[C@@H](O)[C@@]2(n3cc(-c4ccccc4)c4c(Nc5ccccc5)ncnc43)C[C@@H]12 [Compound 38a]
hAdK inhibition, in words (hAdK [2]): commensurate with 2 at most concentrations | concentration at which inhibition begins to vary significantly from 2 (hAdK [2]; Bonferroni post hoc vs 2): never significantly varied from 2 | potency relative to reference compound 2 (hAdK [2]; hAdK inhibition): approximately two-fold less potent | IC50 (hAdK [2]; hAdK, inosine as substrate, read-out: IC50 for hAdK): < 100 nM and 88 nM | Ki [3]: 710 nM | inhibition of binding at the other off-target sites [4]: < 50% | agonist or antagonist activity at P2Y1 (human P2Y1): inactive | agonist or antagonist activity at P2Y2 (human P2Y2): inactive | agonist or antagonist activity at P2Y4 (human P2Y4): inactive | agonist or antagonist activity at P2Y11 (human P2Y11): inactive | agonist or antagonist activity at PAR1 [5]: inactive | effect on DNA methylation in ADK-null cells (non-specific) (ADK-null cells): greater specificity | effect on DNA methylation in ADK-null cells (non-specific) (ADK-null cells; listed as 38A): no effect on DNA methylation; also recorded: without any off-target effects | DNMT activity in brain nuclear protein extracts (DNMT activity): significantly reduced | DNMT activity in brain nuclear protein extracts (DNMT activity; listed as 38A): reduced | hippocampal (brain) DNA methylation levels [6]: reduced | hippocampal (brain) DNA methylation levels ([6]; listed as 38A): reduced; also recorded: reduces DNA methylation in the hippocampus | sedation / sedative side effects [7]: not associated with any overt signs of sedation | polarity [8]: least polar | effect on DNA methylation in ADK-S cells (ADK-S cells): without any off-target effects | effect on DNA methylation in ADK-L cells, in words (ADK-L cells; 55 and 38a at 26 nM, known inhibitors at their IC50): reduces DNA methylation specifically in ADK-L cells | reduction of DNA methylation in ADK-L cells (ADK-L cells; […] nM (equimolar), vs ADK-L vehicle): > 50%
